Nine molecules from patent US11807693B2 (priority 2014, dated 2023) can be followed below.

In general, amount remaining refers to the share of the starting amount still present when the sample was taken. Read a high amount remaining as greater stability. For orientation: EC50 means the concentration that produces a half-maximal response.

Read-outs that look alike come from different tables or passages of the source. Starred links: 1 amine or outer side, 2 acyl side, 3 side chain; linkers in the order of their positions; H or OH if unused. Non-standard residues stand in square brackets, D forms with d. Residues, ends and D or L forms follow the SMILES beside them. *: point of attachment. dBip = N[C@H](Cc1ccc(-c2ccccc2)cc1)C(=O)O; Oic = O=C(O)[C@@H]1C[C@@H]2CCCC[C@@H]2N1; Phe(4-Cl) = N[C@@H](Cc1ccc(Cl)cc1)C(=O)O; Phe(4-I) = N[C@@H](Cc1ccc(I)cc1)C(=O)O; γGlu = O=C(O)[C@H](CCC(=O)[*:2])N[*:1]; NMeR = CN[C@@H](CCCNC(=N)N)C(=O)O; Palmitoyl = CCCCCCCCCCCCCCCC(=O)*; Tridecanoyl = CCCCCCCCCCCCC(=O)*; hArg = N=C(N)NCCCC[C@H](N)C(=O)O; Cha = N[C@@H](CC1CCCCC1)C(=O)O; NMeL = CN[C@@H](CC(C)C)C(=O)O; αMeL = CC(C)C[C@](C)(N)C(=O)O; Aic = NC1(C(=O)O)Cc2ccccc2C1; αMeP = C[C@@]1(C(=O)O)CCCN1; β3hP = O=C(O)C[C@@H]1CCCN1; Pip = O=C(O)[C@@H]1CCCCN1; Nle = CCCC[C@H](N)C(=O)O; Orn = NCCC[C@H](N)C(=O)O; Hexanoyl = CCCCCC(=O)*; AEEA = NCCOCCOCC(=O)O; Aib = CC(C)(N)C(=O)O; Inp = O=C(O)C1CCNCC1 Some results are limits rather than exact numbers.

The nature of data set [1]: In vitro stability in rat liver homogenate. The class given is in vitro ADME. To be noted: tissue homogenate. The gist of the method:
(§1)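 Peptide remaining was followed by high-resolution LC-MS of methanol-quenched, centrifuged samples with internal standard. Incubations were at 37° C. over 4 hr, peptides at 5 μM final in rat plasma or in rat liver or kidney homogenate.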

Data set [2] in a line: In vitro stability in rat kidney homogenate. It is filed as in vitro ADME. The settings on record: rat, tissue homogenate. The gist of the method:
as §1

Data set [3] can be described thus: In vitro stability in rat plasma. It is filed as in vitro ADME. Put shortly:
as §1

Another data set has as its target T1, rat APJ receptor (Rattus norvegicus, UniProt Q9JHG3).
T1 construct: expressed in transfected cells
T1 sequence (Q9JHG3 1-377): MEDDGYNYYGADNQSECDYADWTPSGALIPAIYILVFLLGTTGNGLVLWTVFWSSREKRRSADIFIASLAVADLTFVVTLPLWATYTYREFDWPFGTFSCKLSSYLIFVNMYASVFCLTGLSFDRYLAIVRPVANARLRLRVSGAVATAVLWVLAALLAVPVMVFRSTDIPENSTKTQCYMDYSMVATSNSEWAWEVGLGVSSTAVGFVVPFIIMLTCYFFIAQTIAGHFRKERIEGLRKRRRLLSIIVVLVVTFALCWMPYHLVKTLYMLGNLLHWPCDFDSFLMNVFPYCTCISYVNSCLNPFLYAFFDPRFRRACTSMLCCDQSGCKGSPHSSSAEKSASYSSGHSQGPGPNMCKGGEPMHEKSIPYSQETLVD
As to the kind of experiment: [35S] GTPγS assay, rat APJ receptor. The class given is biochemical. How it is done: The membranes were incubated with modified peptides in the assay buffer. […] Bound [^35S] GTPγS was separated from free radiolabel by filtration. The filter bound radioactivity was determined by liquid scintillation counting.
A general note: GTPγS resists hydrolysis and so accumulates on activated G proteins.

[4] abbreviates: rat APJ receptor, read-out: EC50 Rat APJ Receptor.
Where [5] appears, read: Table 16, read-out: EC50 Rat APJ Receptor.

Consider `CC(=O)N[C@@H](CCCCNC(=N)N)C(=O)N[C@H](CCCNC(=N)N)C(=O)N[C@@H](CCC(N)=O)C(=O)N[C@@H](CCCCNC(=N)N)C(=O)N1CCC[C@H]1C(=O)N[C@@H](CCC(=O)O)C(=O)N(C)[C@@H](CC(C)C)C(=O)N[C@@H](CO)C(=O)N[C@@H](Cc1c[nH]cn1)C(=O)N[C@@H](CCCCN)C(=O)NCC(=O)N1[C@H](C(=O)N[C@@H](Cc2ccc(I)cc2)C(=O)N2CCC[C@H]2C(=O)N[C@H](Cc2ccc(-c3ccccc3)cc2)C(=O)O)C[C@@H]2CCCC[C@@H]21` [compound 79] (Ac-[hArg][dR]Q[hArg]PE[NMeL]SHKG[Oic][Phe(4-I)]P[dBip]-OH), for which the figures for the amount remaining at 4 h, 5 μM in data set [1], in data set [2] and in data set [3] were below 1%, 1.3% and above 90%, respectively. On rat APJ receptor (setting [4]), the EC50 worked out at 0.341 nM.

For the molecule `CCCCCCCCCCCCC(=O)N[C@@H](CCC(=O)NCCOCCOCC(=O)NCCOCCOCC(=O)N[C@@H](CCCN)C(=O)N[C@@H](Cc1ccccc1)C(=O)N[C@@H](CCCCNC(=N)N)C(=O)N[C@@H](CCCCNC(=N)N)C(=O)N[C@@H](CCC(N)=O)C(=O)N(C)[C@@H](CCCNC(=N)N)C(=O)N1CCC[C@H]1C(=O)N(C)[C@@H](CCCNC(=N)N)C(=O)N[C@@H](CC1CCCCC1)C(=O)N[C@@H](CO)C(=O)N[C@@H](Cc1c[nH]cn1)C(=O)N[C@@H](CCCCN)C(=O)NCC(=O)N1[C@H](C(=O)N[C@@H](CCCC)C(=O)N2CCC[C@H]2C(=O)N[C@@H](Cc2ccc(Cl)cc2)C(=O)O)C[C@@H]2CCCC[C@@H]21)C(=O)O` [compound 297] ({Tridecanoyl-γGlu-AEEA-AEEA}-[Orn]F[hArg][hArg]Q[NMeR]P[NMeR][Cha]SHKG[Oic][Nle]P[Phe(4-Cl)]-OH), the amount remaining at 4 h, 5 μM in data set [1] is 40.3%; in data set [2] it was below 1%; in data set [3] it was above 90%. On rat APJ receptor (setting [4]), the half-maximal effective concentration (EC50) amounted to 1.02 nM.

Take `CCCCCCCCCCCCC(=O)N[C@@H](CCC(=O)NCCOCCOCC(=O)NCCOCCOCC(=O)N[C@@H](CCC(N)=O)C(=O)N[C@@H](CCCNC(=N)N)C(=O)N1CCC[C@H]1C(=O)N[C@@H](CCCCNC(=N)N)C(=O)N[C@@H](CC1CCCCC1)C(=O)N[C@@H](CO)C(=O)N[C@@H](Cc1c[nH]cn1)C(=O)N[C@@H](CCCCN)C(=O)NCC(=O)N1[C@H](C(=O)N[C@@H](CCCC)C(=O)N2CCC[C@H]2C(=O)N[C@@H](Cc2ccc(Cl)cc2)C(=O)O)C[C@@H]2CCCC[C@@H]21)C(=O)O` [compound 308] ({Tridecanoyl-γGlu-AEEA-AEEA}-QRP[hArg][Cha]SHKG[Oic][Nle]P[Phe(4-Cl)]-OH): the figures for the fraction remaining at 4 h, 5 μM in data set [1], in data set [2] and in data set [3] were 6.2%, below 1% and 76%, respectively. Also, at rat APJ receptor (setting [5]), the EC50 is 0.18 nM.

On to `CCCCCCCCCCCCC(=O)N[C@@H](CCC(=O)NCCOCCOCC(=O)NCCOCCOCC(=O)N[C@@H](CCCCNC(=N)N)C(=O)N[C@@H](CCC(N)=O)C(=O)N[C@@H](CCCCNC(=N)N)C(=O)N1CCC[C@H]1C(=O)N(C)[C@@H](CCCNC(=N)N)C(=O)N[C@@H](CC1CCCCC1)C(=O)N[C@@H](CO)C(=O)N[C@@H](Cc1c[nH]cn1)C(=O)N[C@@H](CCCCN)C(=O)NCC(=O)N1[C@H](C(=O)N[C@@H](CCCC)C(=O)N2CCC[C@H]2C(=O)N[C@@H](Cc2ccc(Cl)cc2)C(=O)O)C[C@@H]2CCCC[C@@H]21)C(=O)O` [compound 310] ({Tridecanoyl-γGlu-AEEA-AEEA}-[hArg]Q[hArg]P[NMeR][Cha]SHKG[Oic][Nle]P[Phe(4-Cl)]-OH), for which the share remaining at 4 h, 5 μM in data set [1] is 15%; in data set [2] it was 1%; in data set [3], above 90%. In addition, the concentration for a half-maximal effect (EC50) at rat APJ receptor (setting [4]) came out at 0.364 nM.

Regarding `CCCCCCCCCCCCC(=O)N[C@@H](CCC(=O)NCCOCCOCC(=O)NCCOCCOCC(=O)N[C@@H](CCC(N)=O)C(=O)N[C@@H](CCCCNC(=N)N)C(=O)N1CCC[C@H]1C(=O)N(C)[C@@H](CCCNC(=N)N)C(=O)N[C@@](C)(CC(C)C)C(=O)N[C@@H](CO)C(=O)N[C@@H](Cc1c[nH]cn1)C(=O)N[C@@H](CCCCN)C(=O)NCC(=O)N1[C@H](C(=O)N[C@@H](CCCC)C(=O)N2CCC[C@H]2C(=O)N[C@@H](Cc2ccc(Cl)cc2)C(=O)O)C[C@@H]2CCCC[C@@H]21)C(=O)O` [compound 359] ({Tridecanoyl-γGlu-AEEA-AEEA}-Q[hArg]P[NMeR][αMeL]SHKG[Oic][Nle]P[Phe(4-Cl)]-OH), the results for the fraction remaining at 4 h, 5 μM in data set [1], in data set [2] and in data set [3] were 3%, 2% and 62%, respectively. Moreover, the EC50 at rat APJ receptor (setting [5]) is 0.116 nM.

Turning to `CCCCCCCCCCCCC(=O)N[C@@H](CCC(=O)NCCOCCOCC(=O)NCCOCCOCC(=O)N[C@H](CCC(N)=O)C(=O)N[C@@H](CCCNC(=N)N)C(=O)N1CCC[C@H]1CC(=O)N(C)[C@@H](CCCNC(=N)N)C(=O)N[C@@](C)(CC(C)C)C(=O)N[C@@H](CO)C(=O)N[C@@H](Cc1c[nH]cn1)C(=O)N[C@@H](CCCCN)C(=O)NCC(=O)N1[C@H](C(=O)N[C@@H](CCCC)C(=O)N2CCC[C@@]2(C)C(=O)N[C@@H](Cc2ccc(Cl)cc2)C(=O)O)C[C@@H]2CCCC[C@@H]21)C(=O)O` [compound 553] ({Tridecanoyl-γGlu-AEEA-AEEA}-[dQ]R[β3hP][NMeR][αMeL]SHKG[Oic][Nle][αMeP][Phe(4-Cl)]-OH), the fraction remaining at 4 h, 5 μM in data set [1] is 29%; in data set [2], 15%; in data set [3], above 90%.

`CCCCCC(=O)N[C@@H](CCC(=O)NCCOCCOCC(=O)NCCOCCOCC(=O)N[C@@H](CCC(N)=O)C(=O)N[C@@H](CCCNC(=N)N)C(=O)N1CCC[C@H]1C(=O)N(C)[C@@H](CCCNC(=N)N)C(=O)N[C@@H](CC1CCCCC1)C(=O)N[C@@H](CO)C(=O)N[C@@H](Cc1c[nH]cn1)C(=O)N[C@@H](CCCCN)C(=O)NCC(=O)N1[C@H](C(=O)N[C@@H](CCCC)C(=O)NC(C)(C)C(=O)N[C@@H](Cc2ccc(Cl)cc2)C(=O)O)C[C@@H]2CCCC[C@@H]21)C(=O)O` [compound 562] ({Hexanoyl-γGlu-AEEA-AEEA}-QRP[NMeR][Cha]SHKG[Oic][Nle][Aib][Phe(4-Cl)]-OH): the amount remaining at 4 h, 5 μM in data set [1] is 4%; in data set [2] it was below 1%; in data set [3] it was above 90%.

Regarding `CCCCCCCCCCCCCCCC(=O)N[C@@H](CCC(=O)NCCOCCOCC(=O)NCCOCCOCC(=O)N[C@H](CCC(N)=O)C(=O)N[C@@H](CCCNC(=N)N)C(=O)N1CCC[C@H]1C(=O)N(C)[C@@H](CCCNC(=N)N)C(=O)N[C@@H](CC1CCCCC1)C(=O)N[C@@H](CO)C(=O)N[C@@H](Cc1c[nH]cn1)C(=O)N[C@@H](CCCCN)C(=O)NCC(=O)N1[C@H](C(=O)N[C@@H](CCCC)C(=O)N2CCC(C(=O)N[C@@H](Cc3ccc(Cl)cc3)C(=O)O)CC2)C[C@@H]2CCCC[C@@H]21)C(=O)O` [compound 587] ({Palmitoyl-γGlu-AEEA-AEEA}-[dQ]RP[NMeR][Cha]SHKG[Oic][Nle][Inp][Phe(4-Cl)]-OH), the share remaining at 4 h, 5 μM was 64% in data set [1], 34% in data set [2] and above 90% in data set [3].

Take `CCCCCCCCCCCCCCCC(=O)N[C@@H](CCC(=O)NCCOCCOCC(=O)NCCOCCOCC(=O)N[C@H](CCC(N)=O)C(=O)N[C@@H](CCCNC(=N)N)C(=O)N1CCC[C@H]1C(=O)N(C)[C@@H](CCCNC(=N)N)C(=O)N[C@@H](CC1CCCCC1)C(=O)N[C@@H](CO)C(=O)N[C@@H](Cc1c[nH]cn1)C(=O)N[C@@H](CCCCN)C(=O)NCC(=O)N1CCCC[C@H]1C(=O)N[C@@H](CCCC)C(=O)N1CCC[C@H]1C(=O)NC1(C(=O)O)Cc2ccccc2C1)C(=O)O` [compound 590] ({Palmitoyl-γGlu-AEEA-AEEA}-[dQ]RP[NMeR][Cha]SHKG[Pip][Nle]P[Aic]-OH): the share remaining at 4 h, 5 μM in data set [1] was found to be 11%; in data set [2] it was 4%; in data set [3], 86%.
